Where “and” joins values, the source holds several entries; their conditions need not be identical. Identical values can stand only once. Entries after “also recorded” stand apart in the source; their conditions may differ.
Tested on: white matter adjacent to the cerebellar nuclei, and the nuclei
Assay: Vigabatrin-induced brain vacuolation in rats, histology of cerebellar sections scored by light microscopy
Format: in vivo, Wistar rats
Set-up: key to vacuolation score (grade) of cerebellum: 1: No or occasional individual vacuoles in perinuclear white matter.; 2: Mild to moderate regional vacuolation of perinuclear white matter, sometimes extending into nucleus.; 3: Extensive, widespread vacuolation of perinuclear white matter, often with involvement of adjacent nuclear regions. Vacuolation may extend to folial white matter
Settings: for vacuolation score (grade) of cerebellum: blinded scoring; for vacuolation in the brain tissue (histological appearance): cerebellar sections
Method: Animal treatments: As described previously (Duboc A. et al. 2004; Izumi Y. et al. 2004), Wistar rats Rj Wi IOPS Han were purchased from Janvier (Le Genest-St-Isle, France) at between six and seven weeks of age. vigabatrin dissolved in 0.9% NaC1 was administered at 40mg (125 mg/ml, 0.32m1) to rats by daily intraperitoneal injection for 65 days. These daily doses (rats: 200mg/kg) are in-line with those described for the treatment of epilepsy (adult patients: […]; children: 50-75mg/kg; or infants: 100-150 mg/kg) (Chiron C. et al. 1997; Lux AL. et al. 2004; Aicardi J. et al. 1996). Taurine supplementation was given in drinking water at a concentration of 0.1M.
Histology: Rats were anesthetized by intraperitoneal injection (0.8 to 1.2 ml/kg) of a solution containing ketamine (40 mg/ml) and xylazine (4 mg/ml Rompum). Rat heads were removed and an opening created in the calvarium. These were then immersion fixed in 4% buffered formol (T/02170015, MMFrance) and then placed in phosphate buffered saline. Brains were then removed from the skulls and placed in 10% neutral buffered formalin. Brains were trimmed and their cerebellar nuclei placed in 10% buffered formalin and embedded in paraffin. Sections of the cerebellar nuclei were stained with hematoxylin and eosin.
Vacuolation of cerebellum was assessed by light microscopy, with the region of emphasis being the white matter adjacent to the cerebellar nuclei, and the nuclei. Vacuolation was scored as follows.
1- No or occasional individual vacuoles in perinuclear white matter.
2- Mild to moderate regional vacuolation of perinuclear white matter, sometimes extending into nucleus.
3- Extensive, widespread vacuolation of perinuclear white matter, often with involvement of adjacent nuclear regions. Vacuolation may extend to folial white matter

| Compound | vacuolation score (grade) of cerebellum (rats, vigabatrin 40 mg (200mg/kg) daily intraperitoneal injection for 65 days, n=7) | vacuolation in the brain tissue (histological appearance) (vigabatrin-treated rats, FIG. 1B) | vacuolation score (grade) of cerebellum (vigabatrin-treated rats (200mg/kg daily i.p., 65 days) with taurine 0.1M in drinking water, n=7 (grade 1 n=3, grade 2 n=4), 200 mg/kg) | vacuolation in the brain tissue (histological appearance) (vigabatrin-treated rats supplemented with taurine (0.1M in drinking water), FIG. 1C) |
| --- | --- | --- | --- | --- |
| C=CC(N)CCC(=O)O (stereo not shown) [vigabatrin, 4-amino-5-hexenoic acid, reference compound] | 3 | extensive; also recorded: a great number of vacuoles | – | – |
| NCCS(=O)(=O)O [taurine, 2-aminoethanesulfonic acid] | – | – | 1 and 2 | mild and vacuoles were present in some animals but appeared at a much lower density |
